# From patent US20210093558A1 (Bryn Pharma, LLC, priority 2018, published 2021)
# System: histamine induced nasal congestion
structure (smiles),measurement,setting,value
"NCCc1c[nH]cn1 [Histamine, histamine]",induction of nasal congestion,5% histamine aerosol for 5 minutes,induced congestion in all animals to varying degrees
same,nasal congestion and flow restriction pressure,"5 and 10 minutes post-histamine exposure, Group 1",progressive increase in nasal congestion and flow restriction pressure
same,histamine induced congestion without epinephrine,"pilot study, 60, 80 and 100 minute time points",remains elevated at significant levels
